The record followed here is patent US20230263822A1, “MODULATION OF FACTOR 11 EXPRESSION” (Ionis Pharmaceuticals, Inc., priority 2008, published 2023).

For one series, the system named is Factor 11 mRNA. Briefly: Factor 11 mRNA in liver, FeCl3 induced venous thrombosis model vs warfarin (Example 11). The class given is in vivo, BALB/c mice. Particulars: FeCl3 induced VT model; ISIS 404071 1.25-40 mg/kg s.c. twice a week 3 weeks; warfarin 0.5-5 mg/kg daily 6 days. The method, then: (§1) Two control groups of BALB/c mice were treated with PBS, administered subcutaneously twice a week for 3 weeks. Two days after the last dose of PBS, mice in both groups were anesthetized with 150 mg/kg ketamine mixed with 10 mg/kg xylazine administered by intraperitoneal injection. Thrombus formation was induced with FeCl3 in all groups of mice except the first control group.
(§2) In mice undergoing FeCl3 treatment, thrombus formation was induced by applying a piece of filter paper (2×4 mm) pre-saturated with 10% FeCl3 solution directly on the vena cava. After 3 minutes of exposure, the filter paper was removed. Thirty minutes after the filter paper application, a fixed length of the vein containing the thrombus was dissected out for platelet analysis. Liver was collected for RNA analysis.
RNA was extracted from liver tissue for real-time PCR analysis of Factor 11.

The test system of the next series is platelet factor-4 (PF-4). Briefly: Thrombus formation by PF-4 real-time PCR, FeCl3 induced venous thrombosis model vs warfarin (Example 11). Format: in vivo, BALB/c mice. Conditions: for PF-4 in vena cava, percentage as compared to PBS controls (thrombus formation): + FeCl3. The method, then: as §1, §2
Real-time PCR quantification of platelet factor-4 (PF-4) was used to quantify platelets in the vena cava as a measure of thrombus formation.

Series [1] is described as follows: Tail bleeding assay vs warfarin (Example 12). The method, then: A separate control group of BALB/c mice was treated with PBS, administered subcutaneously twice a week for 3 weeks.
Mice were anesthetized in the chamber with isoflurane and a small piece of tail (approximately 4 mm from the tip) was cut with sterile scissors. The tail cut was immediately placed in a 15 mL Falcon tube filled with approximately 10 mL of 0.9% NaCl buffer solution warmed to 37° C. The blood was collected over the course of 40 minutes. The saline filled tubes were weighed both before and after bleeding.

Series [2] has as its system blood coagulation. The series is described as follows: PT and aPTT vs warfarin (Example 13). The class given is in vivo, BALB/c mice. Particulars: for aPTT INR / PT INR: PPP two days after final dose. The procedure: In a control group, BALB/c mice were treated with PBS, administered subcutaneously mice twice a week for 3 weeks.
Two days after the final dose was administered, PPP was collected and PT and aPTT assays were performed.
PT and aPTT values provided in Table 16 are reported as International Normalized Ratio (INR) values. […] This ratio was then raised to the power of the International Sensitivity Index (ISI) of the tissue factor used.

In series [3] the test system is blood coagulation. The series is described as follows: PT and aPTT, combination with warfarin (Example 21). The class given is in vivo, BALB/c mice. The method, then:
Plasma was collected from each group 5 days after the last dose was administered. […] In a final group of BALB/c mice, PBS was administered subcutaneously twice a week for three weeks, as a control. Plasma was collected 5 days after the last PBS treatment.
PT and aPTT values provided in Table 33 are reported as International Normalized Ratio (INR) values.

Series [4] can be described thus: Collagenase-induced intracerebral hemorrhage model: hemorrhage volume, neurologic deficit score, mortality (Example 25). Format: in vivo, BALB/c mice. Particulars: ISIS oligonucleotides 40 mg/kg s.c., warfarin 2 mg/kg intraperitoneally, twice a week for two weeks. The method, then:
In a first cohort, ISIS 404071 was administered subcutaneously to BALB/c mice twice a week for two weeks at a dose 40 mg/kg. […] In a third cohort, ISIS 421208 ([…], 8 mismatches to murine Factor 11, incorporated herein as SEQ ID NO: 14) was administered subcutaneously to BALB/c mice twice a week for two weeks at a dose 40 mg/kg. In a fourth cohort, PBS was administered to BALB/c mice twice a week for two weeks.
Two days after receiving their final dose, all mice in all cohorts were anesthetized with […] of avertin. Next, the mice were injected at −1 mm AP, 1 mm R ML, −4 mm DV from bregma flat skull with a 10 μL Hamilton syringe containing 0.075 U collagenase (150 U/mL). Collagenase was delivered over 5 minutes and the needle was kept in place for an additional 5 minutes to prevent reflux. The mice were then analyzed for hemorrhagic size, neurologic deficit score, and mortality.
Table 37 presents the hemorrhage volume detected in mice after collagenase treatment, Table 38 presents the neurologic deficit score of the mice, and Table 39 presents the mortality rate of the mice. Neurological deficit is measured by a standard scoring system where no deficiency is zero and severe deficit is five.

Series [5] deals with mesenteric vein thrombosis. The series is described as follows: Mesenteric vein thrombosis, intravital microscopy (Example 22). Format: in vivo. Conditions: C57BL/6 mice, 50 mg/kg s.c. twice a week for three weeks, 10% FeCl3 on mesenteric vein. The procedure: In a first cohort, ISIS 404071 was administered subcutaneously to C57BL/6 mice twice a week for three weeks at a dose of 50 mg/kg. In a second cohort, a control oligonucleotide, ISIS 405277 ([…]; antisense oligonucleotide for Factor 2), incorporated herein as SEQ ID NO: 12 was administered subcutaneously to C57Bl/6 mice twice a week for three weeks at a dose of 50 mg/kg.
Blood was collected from the retro-orbital venous plexus of naïve C57BL/6 mice by puncture and collected in polypropylene tubes containing 300 μl of heparin (30 U/ml). Platelet rich plasma (PRP) was obtained by centrifugation at 1000 rpm for 5 min. The PRP was transferred to fresh tubes containing 2 μl of Prostaglandin I2 (PGI2) (2 μg/ml) and incubated at 37° C. for 5 min. After centrifugation at 2600 rpm, pellets were resuspended in 1 ml modified Tyrode's-HEPES buffer (137 mM NaCl, 0.3 mM Na2HPO4, 2 mM KCl, 12 mM NaHCO3, 5 mM HEPES, 5 mM glucose, 0.35% BSA, pH 7.2) containing 2 μl of PGI2 and incubated at 37° C. for 5 min. The suspended pellet was centrifuged at 2600 rpm for 5 min. To remove PGI2, the washing step was repeated twice and platelets were fluorescently labeled with calcein AM 2.5 μg/mL (Molecular Probes, Eugene, Oreg.) for 10 min at room temperature.
Fluorescently-labeled platelets were injected intravenously in ISIS 404071 treated and control oligonucleotide treated C57BL/6 mice. […] The exposed mesentery was kept moist throughout the experiment by periodic superfusion with warmed (37° C.) PBS. The mesentery was transluminated with a 12V, 100 W, DC stabilized source. Veins were visualized using a Zeiss (Germany) Axiovert 135 inverted microscope (Objective 32X) connected to an SVHS video recorder (AG-6730; Panasonic, Tokyo, Japan) using a CCD video camera (Hamamatsu Photonic Systems, Hamamatsu City, Japan). Centerline erythrocyte velocity (Vrbc) was measured using an optical Doppler velocimeter (Microcirculation Research Institute, Texas A&M College of Medicine, College Station, Tex.). Venular shear rate (τ) was calculated based on Poiseuille's Law for a newtonian fluid, τ=8(Vmean/Dv), where Dv is the diameter of the venule and Vmean is estimated from the measured Vrbc using the empirical correlation Vmean=Vrbc/1.6.
Mesenteric vein thrombosis was performed two days after the last antisense oligonucleotide injection. Thrombosis was induced by applying Whatman paper soaked in a 10% FeCl3 solution for 5 minutes on the mesenteric vein. The vein was monitored for 40 minutes, or until occlusion. The elapsed time before the first thrombus 30-50 μm in diameter and the elapsed time before blood stopped flowing for 30 seconds were observed.

The mark [6] stands for this setting: Warfarin 0.5 mg/kg intraperitoneally daily for 6 days.
Where [7] appears, read: Warfarin 1 mg/kg intraperitoneally daily for 6 days.
The mark [8] stands for this setting: Warfarin 2 mg/kg intraperitoneally daily for 6 days.
[9] abbreviates: Warfarin 3 mg/kg intraperitoneally daily for 6 days.
[10] abbreviates: Warfarin 4 mg/kg intraperitoneally daily for 6 days.
[11] abbreviates: Warfarin 5 mg/kg intraperitoneally daily for 6 days.
Where [12] appears, read: BALB/c mice, ISIS 404071 1.25-40 mg/kg, warfarin 0.5-5 mg/kg.
Setting [13] is: BALB/c mice, ISIS 404071 25 or 50 mg/kg, warfarin 2 mg/kg.
Setting [14] is: Warfarin 2 mg/kg once daily for 5 days.

Take `CC(=O)CC(c1ccccc1)c1c(O)c2ccccc2oc1=O` (centres unmarked) [warfarin]: in the series with Factor 11 mRNA, the “Factor 11 mRNA in liver vs PBS control” value is recorded as “did not result in significant reduction of Factor 11”. For the same compound, the “PF-4 in vena cava as measure of thrombus formation” value in the series on platelet factor-4 (PF-4) (FeCl3 induced VT model, vs PBS control) was “reduction of PF-4 in comparison to the PBS control for dosages of 2 mg/kg and higher”. Besides, the “PF-4 in vena cava, percentage as compared to PBS controls (thrombus formation)” value in the series with platelet factor-4 (PF-4) (setting [6]) is recorded as 128%; with platelet factor-4 (PF-4) (setting [7]) it was 124%; in the series on platelet factor-4 (PF-4) (setting [8]), 80%; in the series on platelet factor-4 (PF-4) (setting [9]), 21%; with platelet factor-4 (PF-4) (setting [10]) it was 12%; with platelet factor-4 (PF-4) (setting [11]) it was 33%. The “bleeding in tail bleeding assay” value in series [1] (BALB/c mice, compared to PBS treated mice) is “did increase bleeding”. The “Blood (tail bleeding, collected over 40 minutes)” value in series [1] (setting [6]) was found to be 0.07 g; in series [1] (setting [7]), 0.35 g; in series [1] (setting [8]), 0.39 g; in series [1] (setting [9]) it was 0.51 g; in series [1] (setting [10]), 0.52 g; in series [1] (setting [11]) it was 0.76 g. For the same compound, the “PT” value in the series on blood coagulation [2] (setting [12]) is listed as “significantly prolonged at every dosage”; in the series on blood coagulation [3] (setting [13]), “increase PT”. Moreover, the “aPTT” value was “prolonged, particularly at dosages of 1 mg/kg and higher” with blood coagulation [2] (setting [12]); “affected” in the series with blood coagulation [3] (setting [13]). The “aPTT INR” value with blood coagulation [2] (setting [6]) is on record as 1.10 INR; in the series with blood coagulation [2] (setting [7]) it was 1.31 INR; with blood coagulation [2] (setting [8]), 1.54 INR; in the series with blood coagulation [2] (setting [9]) it was 2.90 INR; with blood coagulation [2] (setting [10]), 2.18 INR; in the series on blood coagulation [2] (setting [11]), 2.29 INR. The “aPTT INR” value with blood coagulation [3] (setting [14]) worked out at 2.52 INR. For the same compound, the “PT INR” value came out at 2.03 INR with blood coagulation [2] (setting [7]); 2.77 INR in the series on blood coagulation [2] (setting [8]); 22.76 INR in the series with blood coagulation [2] (setting [9]); 6.74 INR with blood coagulation [2] (setting [10]); 9.20 INR in the series on blood coagulation [2] (setting [11]); 21.33 INR in the series with blood coagulation [3] (setting [14]). Also, the “% mortality after collagenase treatment” value in series [4] was found to be 80%.

Regarding “ISIS 405277: control oligonucleotide AAGGACCTACACTATGGAAT; antisense oligonucleotide for Factor 2 (listed as DNA, chemistry not given here) [reference compound]”, in series [5], the “time of occlusion (occlusive thrombi)” value was determined as 19.3 ± 0.8 min and the “time of thrombus formation (30 μm in diameter)” value is 8.9 ± 0.6 min.
